Experiments:
[1] = Clearance in dog at 1 mg/kg, iv; type: ADME, organism-based, Canis lupus familiaris; design: dose 1 mg/kg, route intravenous; settings: in vivo
[2] = Oral bioavailability in mouse at 10 mg/kg, po; type: ADME, organism-based; settings: in vivo
[3] = Clearance in cynomolgus monkey at 1 mg/kg, iv; type: ADME, organism-based, Macaca fascicularis; design: dose 1 mg/kg, route intravenous; settings: in vivo
[4] = Mean retention time in mouse at 3 mg/kg, iv; type: ADME, organism-based; design: dose 3 mg/kg, route intravenous; settings: in vivo
[5] = Half life in mouse at 3 mg/kg, iv; type: ADME, organism-based; design: dose 3 mg/kg, route intravenous; settings: in vivo
[6] = Half life in cynomolgus monkey at 1 mg/kg, iv; type: ADME, organism-based, Macaca fascicularis; design: dose 1 mg/kg, route intravenous; settings: in vivo
[7] = Mean retention time in dog at 1 mg/kg, iv; type: ADME, organism-based, Canis lupus familiaris; design: dose 1 mg/kg, route intravenous; settings: in vivo
[8] = Volume of distribution at steady state in mouse at 3 mg/kg, iv; type: ADME, organism-based; design: dose 3 mg/kg, route intravenous; settings: in vivo, read-out: Vdss
[9] = Oral bioavailability in dog at 10 mg/kg; type: ADME, organism-based, Canis lupus familiaris; settings: in vivo
[10] = Clearance in mouse at 3 mg/kg, iv; type: ADME, organism-based; design: dose 3 mg/kg, route intravenous; settings: in vivo
[11] = Oral bioavailability in cynomolgus monkey at 10 mg/kg, po; type: ADME, organism-based, Macaca fascicularis; settings: in vivo
[12] = Volume of distribution at steady state in cynomolgus monkey at 1 mg/kg, iv; type: ADME, organism-based, Macaca fascicularis; design: dose 1 mg/kg, route intravenous; settings: in vivo, read-out: Vdss
[13] = Half life in dog at 1 mg/kg, iv; type: ADME, organism-based, Canis lupus familiaris; design: dose 1 mg/kg, route intravenous; settings: in vivo
[14] = Volume of distribution at steady state in dog at 1 mg/kg, iv; type: ADME, organism-based, Canis lupus familiaris; design: dose 1 mg/kg, route intravenous; settings: in vivo, read-out: Vdss
[15] = Mean retention time in cynomolgus monkey at 1 mg/kg, iv; type: ADME, organism-based, Macaca fascicularis; design: dose 1 mg/kg, route intravenous; settings: in vivo
[16] = Volume of distribution at steady state in Sprague-Dawley rat at 2 mg/kg, iv; type: ADME, organism-based; design: dose 2 mg/kg, route intravenous; settings: in vivo, read-out: Vdss
[17] = target: Vascular endothelial growth factor receptor 3 (Homo sapiens, UniProt P35916)
Plasma [18] = test: Plasma concentration in CD1 nu/nu mouse at 100 mg/kg, po; type: ADME, organism-based; design: dose 100 mg/kg, route oral; settings: in vivo
[19] = AUC (0 to 24 hrs) in human HT29 cell xenografted CD1 nu/nu mouse at 30 mg/kg, po; type: ADME, organism-based, HT-29; design: time < 24 hr, dose 30 mg/kg, route oral; settings: in vivo
Liver microsomes = test: Metabolic stability assessed as covalent binding in human liver microsomes; type: ADME, Microsome
[20] = Cmax in VEGF soaked disk implanted Sprague-Dawley rat; type: ADME, organism-based; settings: in vivo
[21] = Protein binding in rat plasma; type: ADME, cell-free; settings: read-out: PPB (converted)
[22] = target: Serine/threonine-protein kinase B-raf (Homo sapiens, UniProt P15056, V600E); test: Inhibition of b-Raf V600E
[23] = Intrinsic clearance in human liver microsomes; type: ADME, Microsome
[24] = Inhibition of anti-CD3-induced proliferation of human T cells; type: functional, cell-based; settings: T-cell
HUVEC [25] = test: cells; settings: Homo sapiens
Description: Inhibition of bFGF-induced proliferation of HUVEC cells

[26] = AUC (0 to 24 hrs) in Sprague-Dawley rat at 5 mg/kg, po; type: ADME, organism-based; design: time < 24 hr, dose 5 mg/kg, route oral; settings: plasma
[27] = Cmax in human HT29 cell xenografted CD1 nu/nu mouse at 10 mg/kg, po; type: ADME, organism-based, HT-29; design: dose 10 mg/kg, route oral; settings: in vivo
NIH3T3 = test: Inhibition of CSF1-induced proliferation of BALB/c mouse 3T3 cells; type: functional, cell-based
Cytochrome P450 2D6 = Cytochrome P450 2D6 (Homo sapiens, UniProt P10635)
[28] = Inhibition of histone H3 phosphorylation in human HeLa cells; type: cell-based
[29] = Half life in Sprague-Dawley rat at 2 mg/kg, iv; type: ADME, organism-based; design: dose 2 mg/kg, route intravenous; settings: in vivo
Plasma [30] = test: Plasma concentration in CD1 nu/nu mouse at 30 mg/kg, po; type: ADME, organism-based; design: dose 30 mg/kg, route oral; settings: in vivo
[31] = Intrinsic clearance in rat liver microsomes; type: ADME, Microsome
[32] = Oral bioavailability in Sprague-Dawley rat at 5 mg/kg; type: ADME, organism-based; settings: in vivo
[33] = Mean retention time in Sprague-Dawley rat at 2 mg/kg, iv; type: ADME, organism-based; design: dose 2 mg/kg, route intravenous; settings: in vivo
[34] = Protein binding in dog plasma; type: ADME, cell-free, Canis lupus familiaris; settings: read-out: PPB (converted)
[35] = target: Tyrosine-protein kinase Lck (Homo sapiens, UniProt P06239)
[36] = target: Macrophage colony-stimulating factor 1 receptor (Homo sapiens, UniProt P07333); test: Inhibition of c-FMS
[37] = AUC (0 to 24 hrs) in human HT29 cell xenografted CD1 nu/nu mouse at 3 mg/kg, po; type: ADME, organism-based, HT-29; design: time < 24 hr, dose 3 mg/kg, route oral; settings: in vivo
Plasma [38] = test: Plasma concentration in BALB/c mouse at 3 mg/kg, po; type: ADME, organism-based; design: dose 3 mg/kg, route oral; settings: in vivo
[39] = target: Vascular endothelial growth factor receptor 1 (Homo sapiens, UniProt P17948)
[40] = AUC (0 to 24 hrs) in human HT29 cell xenografted CD1 nu/nu mouse at 10 mg/kg, po; type: ADME, organism-based, HT-29; design: time < 24 hr, dose 10 mg/kg, route oral; settings: in vivo
[41] = Clearance in Sprague-Dawley rat at 2 mg/kg, iv; type: ADME, organism-based; design: dose 2 mg/kg, route intravenous; settings: in vivo
Plasma [42] = test: Plasma concentration in BALB/c mouse at 10 mg/kg, po; type: ADME, organism-based; design: dose 10 mg/kg, route oral; settings: in vivo
[43] = Cmax in human HT29 cell xenografted CD1 nu/nu mouse at 30 mg/kg, po; type: ADME, organism-based, HT-29; design: dose 30 mg/kg, route oral; settings: in vivo
HUVEC [44] = test: Inhibition of FGF-induced proliferation of HUVEC cells; type: functional, cell-based; settings: Homo sapiens
[45] = target: Fibroblast growth factor receptor 2 (Homo sapiens, UniProt P21802); test: Inhibition of FGFR2
[46] = Inhibition of Erk phosphorylation in human A375 cells; type: cell-based; settings: A-375
Rattus norvegicus = test: Inhibition of VEGF-induced angiogenesis in VEGF soaked disk implanted Sprague-Dawley rat cornea assessed as number of blood vessels intersecting the midpoint between the disk and limbus after 7 days; type: functional; settings: 168 h
Plasma [47] = test: Plasma concentration in BALB/c mouse at 30 mg/kg, po; type: ADME, organism-based; design: dose 30 mg/kg, route oral; settings: in vivo
Cytochrome P450 3A4 = Cytochrome P450 3A4 (Homo sapiens, UniProt P08684)
Aurora kinase B = Aurora kinase B (Homo sapiens, UniProt Q96GD4); test: Inhibition of Aurora B
[48] = Cmax in Sprague-Dawley rat at 5 mg/kg, po; type: ADME, organism-based; design: dose 5 mg/kg, route oral; settings: in vivo
Mus musculus = test: Antitumor activity against human HT29 cell xenografted CD1 nu/nu mouse assessed as inhibition of tumor growth at 3 mg/kg, po; type: functional; settings: CD1, HT-29
NHDF = test: Inhibition of PDGF-induced proliferation of NHDF cells; type: functional, cell-based; settings: Homo sapiens
[49] = Protein binding in mouse plasma; type: ADME, cell-free; settings: read-out: PPB (converted)
[50] = AUC in VEGF soaked disk implanted Sprague-Dawley rat; type: ADME, organism-based; settings: plasma
[51] = Cmax in human HT29 cell xenografted CD1 nu/nu mouse at 3 mg/kg, po; type: ADME, organism-based, HT-29; design: dose 3 mg/kg, route oral; settings: in vivo

Vascular endothelial growth factor receptor 1, sequence (P17948 whole entry): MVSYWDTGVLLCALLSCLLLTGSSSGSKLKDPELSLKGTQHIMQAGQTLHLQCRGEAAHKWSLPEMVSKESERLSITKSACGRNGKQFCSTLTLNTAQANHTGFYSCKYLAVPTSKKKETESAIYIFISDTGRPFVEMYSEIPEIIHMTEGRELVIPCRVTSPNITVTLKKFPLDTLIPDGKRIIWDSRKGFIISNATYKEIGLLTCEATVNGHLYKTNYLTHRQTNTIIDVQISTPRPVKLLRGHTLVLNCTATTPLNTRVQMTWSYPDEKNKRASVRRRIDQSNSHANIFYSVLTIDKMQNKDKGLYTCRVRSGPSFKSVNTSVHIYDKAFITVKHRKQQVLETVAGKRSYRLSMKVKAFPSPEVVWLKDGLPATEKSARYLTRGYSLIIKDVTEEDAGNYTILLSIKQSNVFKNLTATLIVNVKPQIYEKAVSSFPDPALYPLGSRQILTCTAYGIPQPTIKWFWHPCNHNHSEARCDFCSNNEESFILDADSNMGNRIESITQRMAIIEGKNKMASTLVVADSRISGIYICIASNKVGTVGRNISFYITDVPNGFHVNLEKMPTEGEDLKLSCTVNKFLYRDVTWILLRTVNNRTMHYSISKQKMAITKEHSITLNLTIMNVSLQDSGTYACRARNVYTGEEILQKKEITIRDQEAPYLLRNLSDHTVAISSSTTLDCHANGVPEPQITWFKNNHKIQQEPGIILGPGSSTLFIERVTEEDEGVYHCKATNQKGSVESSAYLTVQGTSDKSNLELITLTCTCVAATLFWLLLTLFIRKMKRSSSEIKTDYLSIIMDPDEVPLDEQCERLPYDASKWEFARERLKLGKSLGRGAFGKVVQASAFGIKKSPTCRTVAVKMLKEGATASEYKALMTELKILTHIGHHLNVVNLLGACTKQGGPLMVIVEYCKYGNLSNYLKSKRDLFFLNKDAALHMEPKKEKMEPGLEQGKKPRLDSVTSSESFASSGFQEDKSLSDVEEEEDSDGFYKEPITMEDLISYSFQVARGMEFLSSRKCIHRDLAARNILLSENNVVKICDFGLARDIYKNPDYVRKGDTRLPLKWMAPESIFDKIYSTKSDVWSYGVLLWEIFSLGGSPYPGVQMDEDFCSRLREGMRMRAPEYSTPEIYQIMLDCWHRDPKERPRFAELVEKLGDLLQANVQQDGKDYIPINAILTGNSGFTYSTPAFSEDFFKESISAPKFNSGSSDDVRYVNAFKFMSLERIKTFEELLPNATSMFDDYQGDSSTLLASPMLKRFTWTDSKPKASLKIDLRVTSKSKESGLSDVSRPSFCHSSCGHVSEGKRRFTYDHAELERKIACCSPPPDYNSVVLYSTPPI
Tyrosine-protein kinase Lck, sequence (P06239 whole entry): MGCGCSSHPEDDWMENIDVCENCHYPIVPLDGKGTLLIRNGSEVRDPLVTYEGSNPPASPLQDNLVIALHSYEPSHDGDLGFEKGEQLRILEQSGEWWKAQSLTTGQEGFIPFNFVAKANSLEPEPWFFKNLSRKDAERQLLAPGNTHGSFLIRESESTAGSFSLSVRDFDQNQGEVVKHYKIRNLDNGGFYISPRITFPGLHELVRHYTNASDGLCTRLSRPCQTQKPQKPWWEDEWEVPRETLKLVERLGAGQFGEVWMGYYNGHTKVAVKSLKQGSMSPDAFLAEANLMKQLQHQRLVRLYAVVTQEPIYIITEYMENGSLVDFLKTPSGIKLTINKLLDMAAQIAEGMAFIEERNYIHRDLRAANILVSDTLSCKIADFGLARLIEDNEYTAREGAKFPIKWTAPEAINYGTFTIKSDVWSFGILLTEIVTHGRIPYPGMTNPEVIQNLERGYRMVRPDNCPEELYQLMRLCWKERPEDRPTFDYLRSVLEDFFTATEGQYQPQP
Cytochrome P450 3A4, sequence (P08684 whole entry): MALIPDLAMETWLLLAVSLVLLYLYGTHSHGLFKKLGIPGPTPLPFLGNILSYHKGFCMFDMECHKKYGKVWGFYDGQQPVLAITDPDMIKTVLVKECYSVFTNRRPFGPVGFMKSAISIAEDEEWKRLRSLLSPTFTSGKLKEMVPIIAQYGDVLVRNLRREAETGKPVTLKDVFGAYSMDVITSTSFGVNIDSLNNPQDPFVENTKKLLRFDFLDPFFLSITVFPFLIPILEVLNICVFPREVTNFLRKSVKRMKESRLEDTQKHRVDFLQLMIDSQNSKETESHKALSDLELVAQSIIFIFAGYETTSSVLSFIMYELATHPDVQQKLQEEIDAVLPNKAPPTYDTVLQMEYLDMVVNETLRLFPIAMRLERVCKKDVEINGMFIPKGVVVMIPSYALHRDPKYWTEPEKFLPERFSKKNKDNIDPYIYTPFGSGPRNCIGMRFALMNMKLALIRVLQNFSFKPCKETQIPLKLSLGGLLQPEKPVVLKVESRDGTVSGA
Vascular endothelial growth factor receptor 3, sequence (P35916 whole entry): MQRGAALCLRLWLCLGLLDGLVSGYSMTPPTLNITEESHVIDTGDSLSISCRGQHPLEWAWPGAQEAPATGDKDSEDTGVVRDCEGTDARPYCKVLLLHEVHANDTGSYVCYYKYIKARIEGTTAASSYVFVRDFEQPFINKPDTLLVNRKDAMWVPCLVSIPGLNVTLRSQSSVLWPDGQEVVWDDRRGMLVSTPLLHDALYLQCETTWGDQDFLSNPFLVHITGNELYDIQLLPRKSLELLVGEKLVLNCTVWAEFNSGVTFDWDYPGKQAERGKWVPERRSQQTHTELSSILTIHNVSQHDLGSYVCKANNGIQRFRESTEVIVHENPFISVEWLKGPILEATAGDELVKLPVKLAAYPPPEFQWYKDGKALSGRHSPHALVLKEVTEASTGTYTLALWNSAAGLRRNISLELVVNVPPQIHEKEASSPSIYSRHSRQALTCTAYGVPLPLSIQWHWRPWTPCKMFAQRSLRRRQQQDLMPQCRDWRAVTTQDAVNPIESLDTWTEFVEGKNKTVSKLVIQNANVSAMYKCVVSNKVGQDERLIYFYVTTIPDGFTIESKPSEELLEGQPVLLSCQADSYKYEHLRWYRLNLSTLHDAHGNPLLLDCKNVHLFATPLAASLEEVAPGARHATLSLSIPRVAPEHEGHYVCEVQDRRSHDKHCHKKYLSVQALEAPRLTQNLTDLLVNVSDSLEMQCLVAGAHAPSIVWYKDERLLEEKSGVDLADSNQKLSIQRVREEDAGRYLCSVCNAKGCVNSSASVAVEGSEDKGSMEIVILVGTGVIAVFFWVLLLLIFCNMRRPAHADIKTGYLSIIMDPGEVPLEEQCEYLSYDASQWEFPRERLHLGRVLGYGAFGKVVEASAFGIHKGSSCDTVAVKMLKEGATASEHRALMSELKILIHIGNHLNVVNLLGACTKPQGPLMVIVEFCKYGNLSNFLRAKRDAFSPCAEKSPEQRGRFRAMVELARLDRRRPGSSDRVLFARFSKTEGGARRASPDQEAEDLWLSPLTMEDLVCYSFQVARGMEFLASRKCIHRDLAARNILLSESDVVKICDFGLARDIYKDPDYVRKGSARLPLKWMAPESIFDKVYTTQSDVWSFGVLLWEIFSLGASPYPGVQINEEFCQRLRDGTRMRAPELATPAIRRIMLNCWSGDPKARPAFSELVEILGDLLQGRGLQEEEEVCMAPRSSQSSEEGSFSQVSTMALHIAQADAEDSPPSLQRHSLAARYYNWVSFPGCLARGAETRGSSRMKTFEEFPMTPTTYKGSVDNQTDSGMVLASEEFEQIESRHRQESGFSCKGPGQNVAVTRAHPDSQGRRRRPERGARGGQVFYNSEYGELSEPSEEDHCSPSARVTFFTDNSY
Fibroblast growth factor receptor 2, sequence (P21802 whole entry): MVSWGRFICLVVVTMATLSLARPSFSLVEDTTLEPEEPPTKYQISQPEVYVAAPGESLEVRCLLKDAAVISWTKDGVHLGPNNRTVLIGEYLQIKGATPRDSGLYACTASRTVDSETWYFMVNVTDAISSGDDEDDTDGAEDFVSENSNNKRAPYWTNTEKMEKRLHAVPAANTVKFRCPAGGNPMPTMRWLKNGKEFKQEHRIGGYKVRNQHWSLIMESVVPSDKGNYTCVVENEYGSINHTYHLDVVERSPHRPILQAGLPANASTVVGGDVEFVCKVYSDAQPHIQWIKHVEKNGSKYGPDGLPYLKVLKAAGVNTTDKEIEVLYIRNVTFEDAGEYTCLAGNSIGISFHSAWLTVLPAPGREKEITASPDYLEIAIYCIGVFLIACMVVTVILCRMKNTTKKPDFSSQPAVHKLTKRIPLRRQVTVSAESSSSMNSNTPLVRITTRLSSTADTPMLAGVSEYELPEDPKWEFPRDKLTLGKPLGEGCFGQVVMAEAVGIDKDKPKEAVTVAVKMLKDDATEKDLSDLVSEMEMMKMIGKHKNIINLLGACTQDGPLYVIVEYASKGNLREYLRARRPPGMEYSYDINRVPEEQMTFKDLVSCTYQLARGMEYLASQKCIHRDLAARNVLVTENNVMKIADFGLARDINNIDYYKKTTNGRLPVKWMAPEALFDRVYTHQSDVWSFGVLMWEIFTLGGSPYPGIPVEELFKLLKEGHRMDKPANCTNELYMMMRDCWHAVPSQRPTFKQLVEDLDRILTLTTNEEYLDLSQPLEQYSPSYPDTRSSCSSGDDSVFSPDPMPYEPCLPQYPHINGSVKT
Cytochrome P450 2D6, sequence (P10635 whole entry): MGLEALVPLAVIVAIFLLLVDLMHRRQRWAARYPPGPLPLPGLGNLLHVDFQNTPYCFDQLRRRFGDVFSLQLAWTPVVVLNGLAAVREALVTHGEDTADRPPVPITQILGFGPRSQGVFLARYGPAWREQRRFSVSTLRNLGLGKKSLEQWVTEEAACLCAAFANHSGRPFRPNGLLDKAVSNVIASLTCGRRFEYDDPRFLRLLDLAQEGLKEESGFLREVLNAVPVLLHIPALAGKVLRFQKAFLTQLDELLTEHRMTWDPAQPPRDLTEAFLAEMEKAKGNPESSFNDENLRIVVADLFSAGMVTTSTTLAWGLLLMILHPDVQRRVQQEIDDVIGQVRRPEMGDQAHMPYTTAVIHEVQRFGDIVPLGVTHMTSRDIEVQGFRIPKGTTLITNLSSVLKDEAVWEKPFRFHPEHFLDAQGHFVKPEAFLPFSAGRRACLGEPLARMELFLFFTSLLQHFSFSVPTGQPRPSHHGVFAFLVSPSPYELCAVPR

**Q.** With COc1cc2nccc(Oc3ccc4c(C(=O)Nc5ccc(Cl)cc5)cccc4c3)c2cc1OC.CS(=O)(=O)O as the compound, how does the clearance [1] read?
**A.** 1.67 mL/min/kg

**Q.** What about the bioavailability [2] of the same compound?
**A.** 24%

**Q.** What about the clearance [3] of the same compound?
**A.** 3.33 mL/min/kg

**Q.** And the MRT [4]?
**A.** 23 h

**Q.** And the half-life [5]?
**A.** 17 h

**Q.** What about the half-life [6] of the same compound?
**A.** 56 h

**Q.** What about the MRT [7] of the same compound?
**A.** 66 h

**Q.** And the Vd [8]?
**A.** 4.8 L/kg

**Q.** And the bioavailability [9]?
**A.** 72%

**Q.** What about the clearance [10] of the same compound?
**A.** 3.33 mL/min/kg

**Q.** And the bioavailability [11]?
**A.** 62%

**Q.** And the Vd [12]?
**A.** 4.3 L/kg

**Q.** What about the half-life [13] of the same compound?
**A.** 48 h

**Q.** What about the Vd [14] of the same compound?
**A.** 6.7 L/kg

**Q.** What about the MRT [15] of the same compound?
**A.** 22 h

**Q.** With COc1cc2nccc(Oc3ccc4c(C(=O)Nc5ccc(Cl)cc5)cccc4c3)c2cc1OC as the compound, how does the Vd [16] read?
**A.** 7.3 L/kg

**Q.** What about the IC50 [17] of the same compound?
**A.** 2 nM

**Q.** And the concentration (Plasma [18])?
**A.** 10300 nM

**Q.** And the AUC(0-t) at 24 h [19]?
**A.** 48.4 µM·h

**Q.** And the Stability (Liver microsomes)?
**A.** < 100 pM/mg/h

**Q.** And the Cmax [20]?
**A.** 200 nM

**Q.** What about the fraction unbound [21] of the same compound?
**A.** 0.02

**Q.** What about the IC50 [22] of the same compound?
**A.** 40 nM

**Q.** And the microsomal CLint [23]?
**A.** 30 µL/min/mg

**Q.** And the IC50 [24]?
**A.** > 20000 nM

**Q.** And the IC50 (HUVEC [25])?
**A.** > 1100 nM

**Q.** And the AUC(0-t) at 24 h [26]?
**A.** 5250 ng·h/mL

**Q.** What about the Cmax [27] of the same compound?
**A.** 2200 nM

**Q.** And the IC50 (NIH3T3)?
**A.** 25 nM

**Q.** What about the IC50 (Cytochrome P450 2D6) of the same compound?
**A.** > 50000 nM

**Q.** And the IC50 [28]?
**A.** 1100 nM

**Q.** And the half-life [29]?
**A.** 24 h

**Q.** And the concentration (Plasma [30])?
**A.** 4000 nM

**Q.** And the microsomal CLint [31]?
**A.** 50 µL/min/mg

**Q.** And the bioavailability [32]?
**A.** 21%

**Q.** What about the MRT [33] of the same compound?
**A.** 31 h

**Q.** And the fraction unbound [34]?
**A.** 0.026

**Q.** And the IC50 [35]?
**A.** 38 nM

**Q.** What about the IC50 [36] of the same compound?
**A.** 20 nM

**Q.** And the AUC(0-t) at 24 h [37]?
**A.** 6.2 µM·h

**Q.** And the concentration (Plasma [38])?
**A.** 160 nM

**Q.** What about the IC50 [39] of the same compound?
**A.** 0.5 nM

**Q.** What about the AUC(0-t) at 24 h [40] of the same compound?
**A.** 24.1 µM·h

**Q.** And the clearance [41]?
**A.** 3.33 mL/min/kg

**Q.** And the concentration (Plasma [42])?
**A.** 490 nM

**Q.** What about the Cmax [43] of the same compound?
**A.** 3900 nM

**Q.** What about the IC50 (HUVEC [44]) of the same compound?
**A.** > 1140 nM

**Q.** What about the IC50 [45] of the same compound?
**A.** > 20000 nM

**Q.** What about the IC50 [46] of the same compound?
**A.** > 1000 nM

**Q.** And the ED50 (Rattus norvegicus)?
**A.** 0.1 mg/kg

**Q.** What about the concentration (Plasma [47]) of the same compound?
**A.** 1500 nM

**Q.** And the IC50 (Cytochrome P450 3A4)?
**A.** > 50000 nM

**Q.** And the IC50 (Aurora kinase B)?
**A.** > 1000 nM

**Q.** What about the Cmax [48] of the same compound?
**A.** 420 ng/mL

**Q.** What about the inhibition in vivo at 3 mg/kg (Mus musculus) of the same compound?
**A.** 74%

**Q.** And the IC50 (NHDF)?
**A.** 25 nM

**Q.** And the fraction unbound [49]?
**A.** 0.014

**Q.** And the AUC [50]?
**A.** 1.3 µM·h

**Q.** What about the Cmax [51] of the same compound?
**A.** 500 nM

From ChEMBL document CHEMBL1144685, “Naphthamides as novel and potent vascular endothelial growth factor receptor tyrosine kinase inhibitors: design, synthesis, and evaluation” (J Med Chem, 2008)
